What was measured:
Format in all cases: physicochemical
[1] = pH effect on fluorescence; settings: range of pH 4.0-10.0; λexc 488 nm/λem 515 nm
Protocol: To measure the pH effect on fluorescence, 50 nM of fluorescent compounds k) (dye 15) or l) (dye 16) solution in 50 mM sodium tetraborate buffer (pH 9.8) was slowly titrated with HCl, aliquots were taken between pH 9.8 and 4, and fluorescence was measured at λexc 488 nm/λem 515 nm.

[2] = UV-visible absorbance spectra; settings: for absorbance maximum (longer wavelength) / absorbance maximum (shorter wavelength): 50 mM sodium tetraborate buffer pH 9.8; for molar extinction coefficient: at 456 nm
Protocol: (§1) Standard UV-visible and fluorescence spectra were recorded in 50 mM sodium tetraborate buffer pH 9.8 at 0.5-10 μM fluorescent compounds concentration. The fluorescence quantum yield of the fluorescent compounds was determined as described by Adamczyk et al. (previously cited) using alkaline solution of fluorescein as a reference (φ=0.92) (Lohse et al.; Adamczyk et al.; Klonis et al. and Martin et al., all previously cited).

[3] = Stability of 2'-ester toward alkaline hydrolysis; settings: several hours in aqueous pH 9.8 buffer
Text: This is explained by the absence of ionic equilibrium in 3-O-alkyl fluorescein derivatives trapped in a tautomeric quinoid form by 2′-esterification. The stability of 2′-ester toward an alkaline hydrolysis was also checked by following the absorbance and fluorescence spectra.

[4] = Fluorescence emission spectra and fluorescence quantum yield; settings: for fluorescence emission λmax: 50 mM sodium tetraborate buffer pH 9.8; for fluorescence quantum yield φ: alkaline fluorescein as reference
Protocol: as §1

[5] = Dye photostability (photobleaching) study under fluorescence microscope; settings: after 6 min of irradiation
Protocol: Super-Teflon glass slides (VWR International) carrying 40 circular wells of 2 mm diameter, separated by 30 μm-thick Teflon coating were used in dye photostability study. A well was filled with 1 μl of 5 mM fluorescein compounds k) (dye 15) or 1) (dye 16) solution in 50 mM sodium tetraborate buffer pH 9.8 and was enclosed with a coverslip.
The entire well volume was irradiated under the microscope with standard “fluorescein” filters set. The intensity delivered by the source on the surface of the slide was measured with a COHERENT LaserCheck probe, and found to be ˜6 mW/cm^2 at 488 nm. Well images were recorded regularly with IMSTAR software and mean fluorescence intensity was calculated.
For comparison of the photostability of fluorophores under the condition of signal acquisition with fluorescent microscope, the sample was placed in a well on the surface of a glass slide that contains 40 circular wells of 2 mm diameter, separated by 30 μm-thick Teflon coating. The well was then enclosed with a coverslip producing a cylindrical sample chamber of ˜380 nl volume. […] The resulted light intensity at the chamber level was measured to be ˜6 mW/mm^2. At different times the fluorescence images of the well were taken and mean fluorescence intensity was calculated using IMSTAR software (Khomyakova et al., previously cited).

SMILES | pH-dependence of fluorescence and quantum yield [1] | absorbance maximum (longer wavelength) [2] [nm] | absorbance maximum (shorter wavelength) [2] [nm] | molar extinction coefficient [2] [L/mol/cm] | changes in absorbance and fluorescence spectra (2'-ester alkaline hydrolysis) [3] | fluorescence emission λmax [4] [nm] | fluorescence quantum yield φ [4] | decrease in fluorescence [5] [%]
CCOC(=O)c1ccc(NC(C)=O)cc1-c1c2ccc(=O)cc-2oc2cc(OCC(=O)O)ccc12 [l), 4-acetylamino-2-(6-carboxymethoxy-3-oxo-3H-xanthen-9-yl)-benzoic acid ethyl ester] | virtually pH-independent | 481 | 456 | 23000 | No significant changes | 520 | 0.18 | ~10
CCOC(=O)c1cc(NC(C)=O)ccc1-c1c2ccc(=O)cc-2oc2cc(OCC(=O)O)ccc12 [k), 5-acetylamino-2-(6-carboxymethoxy-3-oxo-3H-xanthen-9-yl)-benzoic acid ethyl ester] | virtually pH-independent | 481 | 456 | 22000 | No significant changes | 520 | 0.19 | ~10

Source: patent publication US20080275215A1, “Fluorescein-Based Compounds And Their Use For Peptide Synthesis” (COMMISSARIAT A L'ENERGIE ATOMIQUE, priority 2005, published 2008)
